In patent US7030113B2, “Aminobenzimidazoles as selective melanin concentrating hormone receptor antagonists for the treatment of obesity and related disorders” (Schering Corporation, priority 2003, dated 2006):

Molecular target: T1, MCH receptor (Homo sapiens, UniProt Q99705)
T1 construct: expressed in transfected cells; host or cells: CHO cells
Assay: MCH Receptor Binding Assay
Details: membranes from CHO cells expressing the MCH receptor, [125I]-MCH, SPA; read-out: Activity Class (Ki)
Method: MCH Receptor Binding Assay:
Membranes from CHO cells expressing the MCH receptor were prepared by lysing cells with 5 mM HEPES for 15 min at 4C. Cell lysates were centrifuged ([…], 15 min) and the pellet was resuspended in 5 mM HEPES. For each 96-well plate (Microlite, Dynex Technologies), 1 mg of cell membranes were incubated with 10 mg of wheat germ agglutinin SPA beads (Amersham) for 5 min at 4 C in a volume of 10 ml of binding buffer (25 mM HEPES, 10 mM MGCl2, 10 mM NaCl, 5 mM MnCl2, 0.1% BSA). The membrane/bead mixture was centrifuged (1500×g, 3.5 min), the supernatant was aspirated, and the pellet was resuspended in 10 ml binding buffer. The centrifugation, aspiration and resuspension were then repeated. The membrane/bead mixture (100 μl) was then added to 96-well plates containing 50 μl of 500 pM [^125I]-MCH (NEN) and […] of the appropriate concentration of compound (4× the desired final concentration). Nonspecific binding was determined by including 1 μM MCH in the binding reaction. The binding reaction was incubated at room temperature for 2 h. Plates were then analyzed in a TOPCOUNT microplate scintillation counter (Packard). Data was analyzed and Ki values were determined using GraphPad Prism.

T1 sequence (Q99705 whole entry): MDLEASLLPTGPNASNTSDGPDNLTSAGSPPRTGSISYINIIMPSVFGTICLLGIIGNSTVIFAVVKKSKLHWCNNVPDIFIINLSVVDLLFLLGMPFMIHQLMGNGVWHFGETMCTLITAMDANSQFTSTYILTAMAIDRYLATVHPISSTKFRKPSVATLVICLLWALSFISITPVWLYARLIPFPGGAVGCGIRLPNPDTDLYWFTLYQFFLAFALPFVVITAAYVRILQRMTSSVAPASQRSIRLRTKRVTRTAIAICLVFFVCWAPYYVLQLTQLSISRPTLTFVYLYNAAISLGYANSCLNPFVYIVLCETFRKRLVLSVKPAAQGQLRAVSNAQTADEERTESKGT

Row | Ki | Structure (SMILES)
1 | < 10 nM | CN1CCN(CCCN(c2nc3cc(Cl)c(F)cc3[nH]2)[C@@H]2CC[C@]3(c4cccc(C#N)c4)C[C@@H]3C2)CC1 [Example 8c]
2 | 10 to 30 nM | CN1CCN(CCCN(c2nc3cc(Cl)c(Cl)cc3[nH]2)[C@@H]2CC[C@]3(c4cccc(C=O)c4)C[C@@H]3C2)CC1 [Example 9a]
3 | 10 to 30 nM | CN1CCN(CCCN(c2nc3cc(F)c(F)cc3[nH]2)[C@@H]2CC[C@]3(c4cccc(C=O)c4)C[C@@H]3C2)CC1 [Example 9b]
4 | < 10 nM | CN(C)Cc1cccc([C@]23CC[C@@H](N(CCCN4CCN(C)CC4)c4nc5cc(Cl)c(Cl)cc5[nH]4)C[C@H]2C3)c1 [Example 10a]
5 | 10 to 30 nM | CN1CCN(CCCN(c2nc3cc(Cl)c(Cl)cc3[nH]2)[C@@H]2CC[C@]3(c4cccc(CN5CCOCC5)c4)C[C@@H]3C2)CC1 [Example 10b]
6 | 10 to 30 nM | CN1CCN(CCCN(c2nc3cc(F)c(F)cc3[nH]2)[C@@H]2CC[C@]3(c4cccc(CN5CCCC5)c4)C[C@@H]3C2)CC1 [Example 10c]
7 | > 100 nM | CN(C)Cc1cccc([C@]23CC[C@@H](N(CCCN4CCN(C)CC4)c4nc5cc(F)c(F)cc5[nH]4)C[C@H]2C3)c1 [Example 10d]
8 | 10 to 30 nM | CN1CCN(CCCN(c2nc3cc(F)c(F)cc3[nH]2)[C@@H]2CC[C@]3(c4cccc(CN5CCOCC5)c4)C[C@@H]3C2)CC1 [Example 10e]
9 | > 100 nM | CN1CCN(CCCN(c2nc3cc(F)c(F)cc3[nH]2)[C@@H]2CC[C@]3(c4cccc(CN5CC[C@@H](O)C5)c4)CC3C2)CC1 (some centres unmarked) [Example 10f]
10 | < 10 nM | CS(=O)(=O)N1CCC(CN(c2nc3cc(Cl)c(Cl)cc3[nH]2)[C@@H]2CC[C@]3(c4cccc(C#N)c4)C[C@@H]3C2)CC1 [Example 16a]
11 | 10 to 30 nM | CS(=O)(=O)N1CCC(CN(c2nc3cc(F)c(F)cc3[nH]2)[C@@H]2CC[C@]3(c4cccc(C#N)c4)C[C@@H]3C2)CC1 [Example 16b]
12 | < 10 nM | CS(=O)(=O)N1CCC(CN(c2nc3cc(F)c(Cl)cc3[nH]2)[C@@H]2CC[C@]3(c4cccc(C#N)c4)C[C@@H]3C2)CC1 [Example 16c]
13 | > 100 nM | CC(C)(C)OC(=O)N1CCC(CN(c2nc3cc(Cl)c(Cl)cc3[nH]2)[C@@H]2CC[C@]3(c4cccc(C#N)c4)CC3C2)CC1 (some centres unmarked) [Example 21]
14 | < 10 nM | N#Cc1cccc([C@]23CC[C@@H](N(CC4CCNCC4)c4nc5cc(Cl)c(Cl)cc5[nH]4)CC2C3)c1 (some centres unmarked) [Example 22]
15 | 10 to 30 nM | CO/N=C/c1cccc([C@]23CC[C@@H](N(CCCN4CCN(C)CC4)c4nc5cc(F)c(F)cc5[nH]4)CC2C3)c1 (some centres unmarked) [Example 24]
16 | < 10 nM | CN1CCN(CCCN(c2nc3cc(Cl)c(Cl)cc3[nH]2)[C@@H]2CC[C@]3(c4cccc(C#N)c4)C[C@H]23)CC1 [Example 30a]
17 | < 10 nM | CN1CCN(CCCN(c2nc3cc(Cl)c(F)cc3[nH]2)[C@@H]2CC[C@]3(c4cccc(C#N)c4)C[C@H]23)CC1 [Example 30b]
18 | 10 to 30 nM | CN1CCN(CCCN(c2nc3cc(F)c(F)cc3[nH]2)[C@@H]2CC[C@]3(c4cccc(C#N)c4)C[C@H]23)CC1 [Example 30c]
19 | 10 to 30 nM | CN1CCN(CCCN(c2nc3cc(F)c(Cl)cc3[nH]2)[C@@H]2CC[C@]3(c4cccc(Br)c4)CC23)CC1 (some centres unmarked) [Example 30d]
20 | < 10 nM | CN1CCN(CCCN(c2nc3cc(F)c(C(F)(F)F)cc3[nH]2)[C@@H]2CC[C@]3(c4ccc(C#N)cc4)CC23)CC1 (some centres unmarked) [Example 35a]
21 | 10 to 30 nM | CN1CCN(CCCN(c2nc3cc(Cl)c(Cl)cc3[nH]2)[C@@H]2CC[C@]3(c4ccc(C#N)cc4)C[C@H]23)CC1 [Example 35b]
22 | < 10 nM | CN1CCN(CCCN(c2nc3cc(Cl)c(F)cc3[nH]2)[C@@H]2CC[C@]3(c4ccc(C#N)cc4)C[C@H]23)CC1 [Example 35c]
23 | > 100 nM | CN1CCN(CCCN(c2nc3cc(F)c(Cl)cc3n2C)[C@@H]2CC[C@]3(c4cccc(C#N)c4)CC23)CC1 (some centres unmarked) [Example 36]
